Experimental data published in US4923882A, “Novel amine derivatives, salts thereof and an anti-ulcer agent containing the same” (Toyama Chemical Co., Ltd., priority 1982, dated 1990).

How the values were obtained:
[1] = system: gastric acid secretion; experiment: Inhibitory effect on gastric acid secretion, perfused stomach preparation of anesthetized rat (histamine stimulated); type: in vivo, Wistar strain rats; settings: intravenous; for ED100: Rattus norvegicus, cumulative, histamine 30 μg/kg/min, read-out: Dose for complete inhibition; for Duration: time from complete inhibition until pH of perfusate became 4
Experimental: (i) Perfused stomach preparation of anesthetized rat [according to M. N. Ghosh and H. O. Schild: Brit. J. Pharmacol. 13, 54 (1958)]
Wistar strain rats (male, 200 to 250 g) starved for 18 hours were anesthetized with urethane and then subjected to laparotomy, after which the forestomach region of the stomach of each rat was incised. The whole interior of the stomach was sufficiently washed with physiological saline, and the cut edges were sutured. A silicon tube was inserted into the stomach to a length of about 5 mm from the duodenum side and fixed. Subsequently, the stomach was perfused with physiological saline adjusted to a pH of about 10 with an aqueous sodium hydroxide solution at a constant rate (1 ml/min) through an oral sonde, and the change in pH of the perfusate which had flowed out through the silicone tube was continuously recorded. During the perfusion, histamine (30 μg/kg/min) was continuously injected, as an agent for stimulating gastric acid secretion, through the femoral vein at a rate of 0.3 ml/min. Each drug was intravenously administered when the acid secretion became almost constant (pH 3.3±0.2), and cumulatively administered when the inhibition of acid secretion at each dose reached a plateau.
The number of experiments was three for each dose.

[2] = system: gastric acid secretion; experiment: Inhibitory effect on gastric acid secretion, pylorus ligation method (histamine); type: in vivo, Wistar strain rats; settings: Rattus norvegicus, oral, histamine 25 mg/kg s.c., read-out: Inhibition percentage (gastric acid secretion)
Experimental: Five to six Wistar strain rats (male, 190 to 230 g) per group were starved for 35 hours, after which each drug was orally administered, and after 2 hours, the pylorus of each rat was ligated under ether anesthesia. […] After 3 hours, each rat was killed, after which the cardiac portion was ligated, and the stomach was removed. After 1 ml of distilled water was injected into the stomach, the gastric juice was collected by centrifugation and its volume was measured. The acidity of the gastric juice was measured by titrating 1 ml of the gastric juice with a 0.1N aqueous sodium hydroxide solution, taking pH 7.0 as the end-point. Physiological saline was administered to a control group.
The inhibition percentage of gastric acid secretion was determined from the following equation: [formula]

Row | Structure (SMILES) | ED100 [1] [mg/kg] | Duration [1] [min] | inhibition in vivo at 3 mg/kg [2] [%] | inhibition in vivo at 1 mg/kg [2] [%]
1 | CN(C)Cc1ccc(CSCCNC(=C[N+](=O)[O-])NCC(O)c2cccnc2)o1 (centres unmarked) [compound 8, N-{2-[[5-(dimethylamino)methyl-2-furyl]methylthio]ethyl}-N'-[2-hydroxy-2-(3-pyridyl)ethyl]-2-nitro-1,1-ethenediamine] | 0.3 | 200 | – | –
2 | O=[N+]([O-])C=C(NCCCOc1cccc(CN2CCCCC2)c1)NCC(O)c1ccc(O)cc1 (centres unmarked) [compound 12, N-[2-hydroxy-2-(4-hydroxyphenyl)ethyl]-2-nitro-N'-[3-(3-piperidinomethylphenoxy)propyl]-1,1-ethenediamine] | 0.15 | > 240 | 87 | –
3 | CS(=O)(=O)NC(=NCCCOc1cccc(CN2CCCCC2)c1)NCC(O)c1ccccc1 (stereo not drawn) [compound 21, N-(β-hydroxyphenethyl)-N'-methanesulfonyl-N"-[3-(3-piperidinomethylphenoxy)propyl]guanidine] | 0.1 | > 240 | – | –
4 | N#CNC(=NCC(O)c1ccccc1)NCCSCc1csc(NC(=N)N)n1 (stereo not drawn) [compound 1, N-cyano-N'-{2-[(2-guanidino-4-thiazolyl)methylthio]ethyl}-N"-(β-hydroxyphenethyl)guanidine] | 0.3 | > 210 | – | –
5 | O=[N+]([O-])C=C(NCCCOc1cccc(CN2CCCCC2)c1)NCC(O)c1ccccc1F (centres unmarked) [compound 36, N-[2-(2-fluorophenyl)-2-hydroxyethyl]-2-nitro-N'-[3-(3-piperidinomethylphenoxy)propyl]-1,1-ethenediamine] | – | – | 85 | –
6 | NC(N)=Nc1nc(CSCCNC(=C[N+](=O)[O-])NCC(O)c2ccccc2)cs1 (centres unmarked) [compound 2] | 0.1 | > 160 | – | –
7 | O=[N+]([O-])C=C(NCCCOc1cccc(CN2CCCCC2)c1)NCC(O)c1ccc([N+](=O)[O-])cc1 (centres unmarked) [compound 20, N-[2-hydroxy-2-(4-nitrophenyl)ethyl]-2-nitro-N'-[3-(3-piperidinomethylphenoxy)propyl]-1,1-ethenediamine] | – | > 210 | – | –
8 | CN(C)Cc1ccc(CSCCNC(=C[N+](=O)[O-])NC[C@@H](O)c2ccc(O)cc2)o1 [compound 22, N-{2-[[5-(dimethylamino)methyl-2-furyl]methylthio]ethyl}-N'-[S(+)-2-hydroxy-2-(4-hydroxyphenyl)ethyl]-2-nitro-1,1-ethenediamine] | 0.04 | 136 | – | –
9 | Nc1ccc(C(O)CNC(=C[N+](=O)[O-])NCCCOc2cccc(CN3CCCCC3)c2)cc1 (centres unmarked) [compound 45, N-[2-(4-aminophenyl)-2-hydroxyethyl]-2-nitro-N'-[3-(3-piperidinomethylphenoxy)propyl]-1,1-ethenediamine] | – | – | – | 65
10 | CSc1ccc(C(O)CNC(=C[N+](=O)[O-])NCCSCc2ccc(CN(C)C)o2)cc1 (centres unmarked) [compound 24, N-{2-[[5-(dimethylamino)methyl-2-furyl]methylthio]ethyl}-N'-[2-hydroxy-2-(4-methylthiophenyl)ethyl]-2-nitro-1,1-ethenediamine] | 0.2 | > 240 | – | –
11 | Cc1cc(CSCCNC(=C[N+](=O)[O-])NCC(O)c2cccc(Cl)c2)sc1CN(C)C (centres unmarked) [compound 28, N-[2-(3-chlorophenyl)-2-hydroxyethyl]-N'-{2-[[5-(dimethylamino)methyl-4-methyl-2-thienyl]methylthio]ethyl}-2-nitro-1,1-ethenediamine] | 0.1 | 205 | – | –
12 | Cc1cc(CSCCNC(=C[N+](=O)[O-])NCC(O)c2ccc(F)cc2F)sc1CN(C)C (centres unmarked) [compound 35, N-{2-[[5-(dimethylamino)methyl-4-methyl-2-thienyl]methylthio]ethyl}-N'-[2-(2,4-difluorophenyl)-2-hydroxyethyl]-2-nitro-1,1-ethenediamine] | – | – | – | 47
13 | O=[N+]([O-])C=C(NCCCOc1cccc(CN2CCCCC2)c1)NCC(O)c1cccc(F)c1 (centres unmarked) [compound 43, N-[2-(3-fluorophenyl)-2-hydroxyethyl]-2-nitro-N'-[3-(3-piperidinomethylphenoxy)propyl]-1,1-ethenediamine] | – | – | – | 51
14 | Cc1ccccc1C(O)CNC(=C[N+](=O)[O-])NCCCOc1cccc(CN2CCCCC2)c1 (centres unmarked) [compound 44, N-[2-hydroxy-2-(2-methylphenyl)ethyl]-2-nitro-N'-[3-(3-piperidinomethylphenoxy)propyl]-1,1-ethenediamine] | – | – | – | 75
15 | O=[N+]([O-])C=C(NCCCOc1cccc(CN2CCCCC2)c1)NCC(O)c1cccc(C(F)(F)F)c1 (centres unmarked) [compound 27, N-[2-hydroxy-2-(3-trifluoromethylphenyl)ethyl]-2-nitro-N'-[3-(3-piperidinomethylphenoxy)propyl]-1,1-ethenediamine] | 0.3 | > 210 | – | –
16 | O=[N+]([O-])C=C(NCCCOc1cccc(CN2CCCCC2)c1)NCC(O)c1ccc(F)c(F)c1 (centres unmarked) [compound 30, N-[2-(3,4-difluorophenyl)-2-hydroxyethyl]-2-nitro-N'-[3-(3-piperidinomethylphenoxy)propyl]1,1-ethenediamine] | 0.15 | > 240 | – | –
17 | Cc1cc(CSCCNC(=C[N+](=O)[O-])NCC(O)c2c(F)cccc2F)sc1CN(C)C (centres unmarked) [compound 34, N-{2-[[5-(dimethylamino)methyl-4-methyl-2-thienyl]methylthio]ethyl}-N'-[2-(2,6-difluorophenyl)-2-hydroxyethyl]-2-nitro-1,1-ethenediamine] | – | – | 71 | –
18 | Cc1cc(CSCCNC(=C[N+](=O)[O-])NCC(O)c2ccc(F)cc2)sc1CN(C)C (centres unmarked) [compound 41, N-{2-[[5-(dimethylamino)methyl-4-methyl-2-thienyl]methylthio]ethyl}-N'-[2-(4-fluorophenyl)-2-hydroxyethyl]-2-nitro-1,1-ethenediamine] | – | – | – | 65
19 | CSc1ccc(C(O)CNC(=C[N+](=O)[O-])NCCCOc2cccc(CN3CCCCC3)c2)cc1 (centres unmarked) [compound 26, N-[2-hydroxy-2-(4-methylthiophenyl)ethyl]-2-nitro-N'-[3-(3-piperidinomethylphenoxy)propyl]-1,1-ethenediamine] | 0.3 | > 240 | – | –
20 | COc1ccc(C(O)CNC(=C[N+](=O)[O-])NCCSCc2ccc(CN(C)C)o2)cc1 (centres unmarked) [compound 37, N-{2-[[5-(dimethylamino)methyl-2-furyl]methylthio]ethyl}-N'-[2-hydroxy-2-(4-methoxyphenyl)ethyl]-2-nitro-1,1-ethenediamine] | – | – | 77 | –
21 | Cc1ccccc1C(O)CNC(=C[N+](=O)[O-])NCCSCc1ccc(CN(C)C)o1 (centres unmarked) [compound 39, N-{2-[[5-(dimethylamino)methyl-2-furyl]methylthio]ethyl}-N'-[2-hydroxy-2-(2-methylphenyl)ethyl]-2-nitro-1,1-ethenediamine] | – | – | 90 | –
22 | CN(C)Cc1ccc(CSCCNC(=C[N+](=O)[O-])NCC(O)c2ccc(F)cc2)o1 (centres unmarked) [compound 38, N-{2-[[5-(dimethylamino)methyl-2-furyl]methylthio]ethyl}-N'-[2-(4-fluorophenyl)-2-hydroxyethyl]-2-nitro-1,1-ethenediamine] | – | – | – | 41
23 | Cc1cc(CSCCNC(=C[N+](=O)[O-])NCC(O)c2ccc(O)cc2)sc1CN(C)C (centres unmarked) [compound 10, N-{2-[[5-(dimethylamino)methyl-4-methyl-2-thienyl]methylthio]ethyl}-N'-[2-hydroxy-2-(4-hydroxyphenyl)ethyl]-2-nitro-1,1-ethenediamine] | 0.18 | 175 | – | –
24 | COc1cccc(C(O)CNC(=C[N+](=O)[O-])NCCSCc2ccc(CN(C)C)o2)c1 (centres unmarked) [compound 23, N-{2-[[5-(dimethylamino)methyl-2-furyl]methylthio]ethyl}-N'-[2-hydroxy-2-(3-methoxyphenyl)ethyl]-2-nitro-1,1-ethenediamine] | 0.15 | 242 | – | –
25 | CCc1cccc(C(O)CNC(=C[N+](=O)[O-])NCCSCc2cc(C)c(CN(C)C)s2)c1 (centres unmarked) [compound 31, N-{2-[[5-(dimethylamino)methyl-4-methyl-2-thienyl]methylthio]ethyl}-N'-[2-(3-ethylphenyl)-2-hydroxyethyl]-2-nitro-1,1-ethenediamine] | 0.3 | 226 | – | –
26 | CN(C)Cc1ccc(CSCCNC(=C[N+](=O)[O-])NCC(O)c2ccc(F)c(F)c2)o1 (centres unmarked) [compound 25, N-{2-[[5-(dimethylamino)methyl-2-furyl]methylthio]ethyl}-N'-[2-(3,4-difluorophenyl)-2-hydroxyethyl]-2-nitro-1,1-ethenediamine] | 0.1 | > 240 | – | –
27 | O=[N+]([O-])C=C(NCCCOc1cccc(CN2CCCCC2)c1)NCC(O)c1cccnc1 (centres unmarked) [compound 19, N-[2-hydroxy-2-(3-pyridyl)ethyl]-2-nitro-N'-[3-(3-piperidinomethylphenoxy)propyl]-1,1-ethenediamine] | 0.1 | 164 | – | –
